≈ marks a conversion by molar mass, not a printed value.
Experiments:
Test in all cases: Minimum Inhibitory Concentration (MIC) assay
Assay type in all cases: cell-based
[1] = test system: Bacillus subtilis; conditions: LB broth, 37° C., 6 hours
Method: (§1) Inhibition of various bacteria by compounds 4 (n=9) and 6 (n=9) is described in Table 1. The biological data were determined by minimum Inhibitory Concentration (MIC) Assays. Each compound was added to 4 ml LB broth at a starting concentration of 200 μg/ml. Serial dilutions were then made, 1 in 2 at each step, ending with 0.2 μg/ml. 5 μL of a saturated culture was added to each serial dilution, and incubated at 37° C. with shaking for 6 hours. The MIC was then determined as the lowest concentration showing inhibited bacterial growth.

[2] = test system: Enterococcus faecalis; conditions: LB broth, 37° C., 6 hours
Method: as §1

[3] = test system: Mycobacterium smegmatis; conditions: Mycolicibacterium smegmatis, LB broth, 37° C., 6 hours
Method: as §1

[4] = test system: Staphylococcus aureus; conditions: LB broth, 37° C., 6 hours
Method: as §1

MIC [1] [mg/L]	MIC [2] [mg/L]	MIC [3] [mg/L]	MIC [4] [mg/L]	Structure (SMILES)
25 (≈ 74.3 µM)	> 200	< 0.2	< 0.2	CCCCCCCCCCS[C@@H]1O[C@@H]([C@H](O)CO)[C@H](O)[C@H]1O [4 (n = 9), Decyl 1-thio-β-D-galactofuranoside]
> 200	200 (≈ 408 µM)	< 0.2	< 0.2	CCCCCCCCCCC(CCCCCCCCCC)S[C@@H]1O[C@@H]([C@H](O)CO)[C@H](O)[C@H]1O [6 (n = 9), 11-heneicosanyl 1-thio-β-D-galactofuranoside]
